Measurements: paper PMC11104609, “Discovery of allosteric regulators with clinical potential to stabilize alpha-L-iduronidase in mucopolysaccharidosis type I” (PLOS ONE, 2024)

Assays:
[1] = Plasma pharmacokinetics of GT-01803 in mice; type: in vivo, male C57BL/6 mice; conditions: male, C57BL/6, mouse
Experimental: The in vivo pharmacokinetic (PK) profile of GT-01803 in plasma was assessed in male C57BL/6 mice after single intravenous (i.v.) and oral gavage administration (p.o.) of 2 mg/kg and 10 mg/Kg, respectively. The plasma PK evaluation was performed by Sai Life Sciences Limited (Pune, India) in accordance with guidelines of the Institutional Animal Ethics Committee (IAEC). Eighteen male mice were divided into Group 1 (i.v.: 2 mg/kg) or Group 2 (p.o.: 10 mg/kg). Animals in Group 1 and Group 2 were administered intravenously and orally with GT-01803 solution formulation in 5% N-methyl-2-pyrrolidone (NMP), 5% Solutol HS-15 and 90% saline solution at 2 and 10 mg/kg doses, respectively.
Blood samples were collected under light isoflurane anesthesia from retro-orbital plexus such that samples were obtained at 0.08, 0.25, 0.5, 1, 2, 3, 4, 6 and 8 hr. (i.v.) and Pre-dose, 0.25, 0.5, 1, 2, 3, 4, 6 and 8 hr (p.o.). At each time point, blood samples were collected from three mice. Immediately after collection, plasma was harvested by centrifugation and stored at -70 °C until analysis. All samples were processed by protein precipitation using acetonitrile and analyzed with an LC/MS/MS method suitable for the purpose (LLOQ = 1.00 ng/mL).
PK parameters were calculated using the non-compartmental analysis tool of Phoenix WinNonlin (Version 7.0). Maximum concentration (Cmax) and time to reach maximum concentration (Tmax) were the observed values. The areas under the concentration time curve (AUClast and AUCinf) […] were calculated by linear trapezoidal rule. The terminal elimination rate constant, ke, was determined by regression analysis of the linear terminal portion of the log plasma concentration-time curve. The terminal half-life (T1/2) was estimated as follows 0.693/ke; CLi.v. = Dose/AUCinf; Vss = MRT X CLi.v.; %F = [(Mean AUCp.o. × Dosei.v.) / (Mean AUCi.v. × Dosep.o.)] × 100.

IDUA [2] = target: T1, IDUA (Homo sapiens, UniProt P35475); test: Differential scanning fluorimetry (DSF) thermal shift; type: binding; set-up: purchased R&D Systems
T1 sequence (P35475 28-653): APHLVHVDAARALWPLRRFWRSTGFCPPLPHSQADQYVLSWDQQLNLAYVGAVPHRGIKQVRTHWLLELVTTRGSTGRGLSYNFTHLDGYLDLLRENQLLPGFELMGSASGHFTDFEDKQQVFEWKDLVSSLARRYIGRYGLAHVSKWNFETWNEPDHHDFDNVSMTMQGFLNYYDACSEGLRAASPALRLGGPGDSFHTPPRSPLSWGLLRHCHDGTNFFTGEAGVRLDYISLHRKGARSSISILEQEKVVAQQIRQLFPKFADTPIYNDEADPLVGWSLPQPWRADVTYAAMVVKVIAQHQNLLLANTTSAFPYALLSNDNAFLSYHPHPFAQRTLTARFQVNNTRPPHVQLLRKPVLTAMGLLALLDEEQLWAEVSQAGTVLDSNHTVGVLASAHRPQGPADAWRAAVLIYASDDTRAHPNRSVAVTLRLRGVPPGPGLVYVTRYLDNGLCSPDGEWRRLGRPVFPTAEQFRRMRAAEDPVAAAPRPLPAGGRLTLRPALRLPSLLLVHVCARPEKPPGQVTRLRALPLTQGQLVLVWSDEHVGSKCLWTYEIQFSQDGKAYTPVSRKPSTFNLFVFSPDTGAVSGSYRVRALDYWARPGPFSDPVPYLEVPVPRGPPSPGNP
Experimental: The capacity of the compounds to stabilise IDUA was assessed by DSF. The thermal denaturation of purified human native enzyme was monitored in the presence of the extrinsic fluorescent probe SYPRO® Orange (Thermo Fisher Scientific, Waltham, MA, USA), which binds to hydrophobic parts of proteins that become exposed as the protein unfolds. […] Reactions containing 12.5 μL of 1.5 μM rhIDUA protein (purchased from R&D Systems) in 100 mM Hepes, 20 mM MgCl2, pH 7, to a final protein concentration of 0.75 μM with SYPRO Orange 10X, and 12.5 μL of the different compound solutions dissolved in 100% DMSO and diluted into the protein buffer to achieve final concentrations of 1% DMSO. The intensity of SYPRO Orange fluorescence after a systematic increase in temperature was monitored in the Roche LightCycler® 480 II device (Roche Diagnostics). The significance of the melting temperature (Tm) shifts was evaluated based on two criteria: absolute ΔTm shift > 0.5 °C (instrumental criterion) and absolute ΔTm standard deviation ≤ 0.2 (statistical criterion). The thermal shift dose response was performed at various increasing concentrations (from 0.04 to 90 μM) of compound #18 (GT-01803) with rhIDUA (obtained from the Institute of Biotechnology and Biomedicine at the Autonomous University of Barcelona (UAB), Bellaterra, Spain).

IDUA [3] = target: T1, IDUA; test: Denaturation prevention (isothermal denaturation) assay with SYPRO Orange; type: binding; set-up: purchased R&D Systems; conditions: 30 μM compound, pH 7.0, 37 °C
Experimental: The capacity of the compounds to stabilize IDUA in neutral pH buffer was assessed using the denaturation prevention assay. Briefly, rhIDUA (obtained from the Institute of Biotechnology and Biomedicine in the UAB, Bellaterra, Spain) was combined to a final concentration of 1 μM with 5X SYPRO Orange and 30 μM of the corresponding compound in a final reaction volume of 25 μL in 100 mM Hepes, 20 mM MgCl2, pH 7 buffer, or 25 mM NaAc, 150 mM NaCl, pH 5.2. Reactions were incubated at 37 °C, and SYPRO Orange fluorescence intensity was monitored at the indicated time points using Glomax® Discover microplate reader (Promega, Madison, WI, USA). Two independent experiments in triplicate at one concentration (30μM) of compound #18 (GT-01803) were performed for denaturation prevention assays.

AUC(0-inf) ([1]; iv, 2 mg/kg): 13600 ng·h/mL
AUC(0-t) ([1]; iv, 2 mg/kg): 13300 ng·h/mL
clearance ([1]; iv, 2 mg/kg): 2.45 mL/min/kg
half-life ([1]; iv, 2 mg/kg): 3.54 h
C0 ([1]; iv, 2 mg/kg, read-out: C0 (back extrapolated conc.)): 33500 ng/mL
Vd ([1]; iv, 2 mg/kg, read-out: Vss): 0.13 L/kg
bioavailability ([1]; oral, p.o. 10 mg/kg vs i.v. 2 mg/kg, AUClast considered, read-out: %F (oral bioavailability)): 50%
AUC(0-inf) ([1]; po, 10 mg/kg): 33200 ng·h/mL
AUC(0-t) ([1]; po, 10 mg/kg): 33000 ng·h/mL
Cmax ([1]; po, 10 mg/kg): 33900 ng/mL
Tmax ([1]; po, 10 mg/kg): 0.25 h
rhIDUA stabilization by DSF (ΔTm) (IDUA [2]; 30 μM, compounds #1 to #21): highest rhIDUA stabilization
increase of rhIDUA melting temperature (IDUA [2]; dose response 0.04 to 90 μM, neutral pH): 4 ºC
pH-induced denaturation of rhIDUA (IDUA [3]): slowed down
SMILES: CCN(CC(=O)Nc1c(Cl)cccc1Cl)Cc1nc2ccsc2c(=O)[nH]1 [GT-01803]
